Data from ChEMBL document CHEMBL1201862, “PubChem BioAssay data set” (2004).
Calls of active or inactive are those of the source. Cut-off read from the data, not from the text of the source, for most assays here: actives have a measured EC50 and inactives only a lower limit.

What was measured:
[1] = molecular target: T1, Neuropeptide Y receptor type 1 (Homo sapiens, UniProt P25929); format: functional;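 note: HEK293 cells with a CNG channel challenged with NPY then isoproterenol; potency as antagonist that reverses NPY suppression of cAMP signal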
T1 sequence (P25929 whole entry): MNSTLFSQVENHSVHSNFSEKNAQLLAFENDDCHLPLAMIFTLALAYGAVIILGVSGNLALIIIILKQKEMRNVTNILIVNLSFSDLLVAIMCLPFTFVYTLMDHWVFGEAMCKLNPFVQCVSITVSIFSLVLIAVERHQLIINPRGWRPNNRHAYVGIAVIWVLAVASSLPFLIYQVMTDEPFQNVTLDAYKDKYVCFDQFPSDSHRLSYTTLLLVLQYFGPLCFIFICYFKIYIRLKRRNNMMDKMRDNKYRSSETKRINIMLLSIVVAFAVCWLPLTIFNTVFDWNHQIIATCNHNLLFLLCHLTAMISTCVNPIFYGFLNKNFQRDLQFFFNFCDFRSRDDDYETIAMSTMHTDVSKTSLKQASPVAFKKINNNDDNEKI

[2] = molecular target: T2, Neuropeptide Y receptor type 2 (Homo sapiens, UniProt P49146); format: functional, cell-based;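 note: HEK293 cells expressing the receptor and a CNG channel; stimulus was NPY near EC95 followed by isoproterenol to raise cAMP; antagonist potency measured as restoring cAMP signal that NPY suppresses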
T2 sequence (P49146 whole entry): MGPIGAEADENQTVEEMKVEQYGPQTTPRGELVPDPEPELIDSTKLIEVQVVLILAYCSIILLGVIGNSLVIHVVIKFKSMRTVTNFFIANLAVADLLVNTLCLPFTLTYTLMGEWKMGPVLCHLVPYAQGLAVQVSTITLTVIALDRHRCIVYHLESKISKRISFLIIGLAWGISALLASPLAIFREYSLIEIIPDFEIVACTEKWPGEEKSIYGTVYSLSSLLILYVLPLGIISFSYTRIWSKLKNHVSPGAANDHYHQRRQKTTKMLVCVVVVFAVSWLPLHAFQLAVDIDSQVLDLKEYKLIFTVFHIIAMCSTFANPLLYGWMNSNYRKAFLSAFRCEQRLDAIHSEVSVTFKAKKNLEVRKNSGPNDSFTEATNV

[3] = luciferase reporter signal suppression in cells – H4 neuroglioma cells, luminescence, dose response (AID 1990); format: functional, cell-based
[4] = Luminescence Cell-Based Dose Response HTS to Identify Inhibitors of 5'UTR Stem-Loop Driven Prion Protein mRNA Translation in H4 Neuroglioblastoma Cells. [Related pubchem assays: 1827 (Project Summary), 1813 (Primary HTS)]; format: functional
Vero [5] = test: mammalian cell viability reduction – secondary assay, cytotoxicity control for West Nile virus antiviral project, dose response (AID 1650); format: functional; conditions: Chlorocebus sabaeus
[6] = alpha-synuclein stem-loop luciferase translation blockers – H4 neuroglioma cells, luminescence, confirmation (AID 1988); format: functional, cell-based
[7] = Trypanosoma cruzi growth suppression in host cells – NIH3T3 host cells, beta-gal luminescence, confirmation (AID 2044); format: functional, cell-based;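 note: intracellular parasites grown in NIH/3T3 mouse fibroblasts as host cells; luminescent beta-galactosidase reporter signal from transgenic T. cruzi replicating inside host cells; inhibitors lower the luminescence signal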
[8] = NIH3T3 cell viability loss – ATP luminescence, mouse fibroblasts, counter-screen, dose response (AID 2010); format: functional, cell-based;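 note: cells exposed to compound for about 90 hours before reading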
Vero [9] = test: cells; format: functional, cell-based; conditions: Chlorocebus sabaeus
Vero [10] = test: cells; format: functional; conditions: Chlorocebus sabaeus
Cytochrome P450 1A2 = molecular target: T3, Cytochrome P450 1A2 (Homo sapiens, UniProt P05177);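 note: PubChem cytochrome P450 panel assay, CYP1A2 panel member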
T3 sequence (P05177 whole entry): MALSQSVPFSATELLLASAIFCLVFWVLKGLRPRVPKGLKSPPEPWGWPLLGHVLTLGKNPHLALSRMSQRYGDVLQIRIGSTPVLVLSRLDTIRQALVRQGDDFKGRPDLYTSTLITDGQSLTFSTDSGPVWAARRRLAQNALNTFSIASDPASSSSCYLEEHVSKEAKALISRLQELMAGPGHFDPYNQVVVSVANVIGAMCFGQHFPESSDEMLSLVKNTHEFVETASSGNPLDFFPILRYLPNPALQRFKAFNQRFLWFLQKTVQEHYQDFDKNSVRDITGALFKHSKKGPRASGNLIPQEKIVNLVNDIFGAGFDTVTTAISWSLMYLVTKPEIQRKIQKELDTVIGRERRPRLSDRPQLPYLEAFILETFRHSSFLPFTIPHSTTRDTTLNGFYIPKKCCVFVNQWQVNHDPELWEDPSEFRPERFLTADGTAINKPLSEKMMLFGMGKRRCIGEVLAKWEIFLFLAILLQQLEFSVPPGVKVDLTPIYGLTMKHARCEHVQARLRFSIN

[11] = NIH-3T3 fibroblast cytotoxicity, dose response, cytotoxicity control, cell-based, fluorescence, Alamar Blue, secondary assay (AID 2327); format: functional;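 note: NIH-3T3 mouse fibroblasts cultured with fluconazole at 8 µg/mL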
Aminopeptidase N = molecular target: T4, Aminopeptidase N (Plasmodium falciparum FcB1/Columbia, UniProt O96935); test: malaria alanyl aminopeptidase activity blockers – biochemical, fluorogenic H-Leu-NHMec substrate, 1536-well (AID 1445); parameters: species or system Plasmodium falciparum 3D7, 3D7
T4 sequence (O96935 whole entry): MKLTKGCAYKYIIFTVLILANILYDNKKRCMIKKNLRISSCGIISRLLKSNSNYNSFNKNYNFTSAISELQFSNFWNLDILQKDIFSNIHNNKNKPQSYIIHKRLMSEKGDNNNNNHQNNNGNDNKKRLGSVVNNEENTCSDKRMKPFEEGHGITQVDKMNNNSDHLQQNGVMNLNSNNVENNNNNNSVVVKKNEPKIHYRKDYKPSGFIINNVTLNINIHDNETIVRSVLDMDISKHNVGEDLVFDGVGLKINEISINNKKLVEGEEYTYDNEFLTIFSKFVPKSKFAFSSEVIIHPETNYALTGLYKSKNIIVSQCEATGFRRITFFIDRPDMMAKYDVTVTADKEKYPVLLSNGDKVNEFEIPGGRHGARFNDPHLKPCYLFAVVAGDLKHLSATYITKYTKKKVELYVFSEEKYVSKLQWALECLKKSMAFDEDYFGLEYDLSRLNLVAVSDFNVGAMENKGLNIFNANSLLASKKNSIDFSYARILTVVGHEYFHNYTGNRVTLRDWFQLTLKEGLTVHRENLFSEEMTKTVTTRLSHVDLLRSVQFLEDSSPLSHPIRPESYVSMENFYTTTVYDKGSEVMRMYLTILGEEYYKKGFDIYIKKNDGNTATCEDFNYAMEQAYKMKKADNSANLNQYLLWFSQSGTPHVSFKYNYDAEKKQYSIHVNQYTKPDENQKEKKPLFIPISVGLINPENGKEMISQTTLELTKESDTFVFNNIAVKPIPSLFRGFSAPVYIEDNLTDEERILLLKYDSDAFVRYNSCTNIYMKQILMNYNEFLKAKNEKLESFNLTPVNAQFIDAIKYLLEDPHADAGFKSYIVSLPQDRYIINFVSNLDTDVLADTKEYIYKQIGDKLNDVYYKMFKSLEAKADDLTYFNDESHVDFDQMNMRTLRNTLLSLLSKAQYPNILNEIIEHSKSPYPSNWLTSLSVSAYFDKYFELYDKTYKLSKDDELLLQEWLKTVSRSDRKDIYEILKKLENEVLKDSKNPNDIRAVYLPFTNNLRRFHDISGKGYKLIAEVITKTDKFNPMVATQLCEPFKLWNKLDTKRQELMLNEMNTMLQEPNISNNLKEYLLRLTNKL

[12] = system: Streptococcus sp. 'group A'; test: Streptococcus pyogenes SK(-)GAS viability under kanamycin – luminescence, BacTiterGlo, confirmation, counter-screen for streptokinase expression inhibitor project, dose response (AID 1900); format: functional, organism-based
Streptokinase A = molecular target: T5, Streptokinase A (Streptococcus pyogenes serotype M1, UniProt P10520); test: viability-normalized secreted streptokinase activity reduction – plasminogen activation absorbance, OD405, dose response (AID 1914); format: functional, Streptococcus pyogenes M1 GAS;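 note: secreted streptokinase activity via plasminogen activation per viability signal from cell pellet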
T5 sequence (P10520 whole entry): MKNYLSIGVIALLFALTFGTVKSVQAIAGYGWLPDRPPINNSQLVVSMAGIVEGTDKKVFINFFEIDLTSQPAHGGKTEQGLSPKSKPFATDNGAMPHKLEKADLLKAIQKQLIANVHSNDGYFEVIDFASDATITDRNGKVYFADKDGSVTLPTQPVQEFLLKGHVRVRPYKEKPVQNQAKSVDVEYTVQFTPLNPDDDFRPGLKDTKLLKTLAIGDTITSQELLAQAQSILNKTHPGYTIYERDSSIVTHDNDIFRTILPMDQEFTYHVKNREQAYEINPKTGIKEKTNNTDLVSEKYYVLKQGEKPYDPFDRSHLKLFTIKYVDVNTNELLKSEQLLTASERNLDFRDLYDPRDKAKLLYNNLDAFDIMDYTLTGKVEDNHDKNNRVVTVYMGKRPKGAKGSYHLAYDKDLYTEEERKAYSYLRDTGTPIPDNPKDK

[13] = fluconazole-exposed Candida albicans growth modulators – fluorescence, retest, confirmation (AID 2467); format: functional, cell-based
[14] = CCR5-tropic HIV-1 fusion blockers – cell-based, CCR5-tropic Env, dose response (AID 2279); format: functional
Streptococcus = test: GAS UMAA2166 growth inhibition – luminescence, BacTiterGlo, counter-screen for streptokinase expression inhibitor project, dose response (AID 1915); format: functional, organism-based;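 note: potency for reduction of bacterial viability or growth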
Genome polyprotein = Genome polyprotein (dengue virus type 2, UniProt P29990); test: flavivirus cap methylation enzyme inhibition – biochemical, confirmation dose response, primary screen (AID 588689); format: functional
Sequence of Genome polyprotein (P29990 2492-3391 limits assumed): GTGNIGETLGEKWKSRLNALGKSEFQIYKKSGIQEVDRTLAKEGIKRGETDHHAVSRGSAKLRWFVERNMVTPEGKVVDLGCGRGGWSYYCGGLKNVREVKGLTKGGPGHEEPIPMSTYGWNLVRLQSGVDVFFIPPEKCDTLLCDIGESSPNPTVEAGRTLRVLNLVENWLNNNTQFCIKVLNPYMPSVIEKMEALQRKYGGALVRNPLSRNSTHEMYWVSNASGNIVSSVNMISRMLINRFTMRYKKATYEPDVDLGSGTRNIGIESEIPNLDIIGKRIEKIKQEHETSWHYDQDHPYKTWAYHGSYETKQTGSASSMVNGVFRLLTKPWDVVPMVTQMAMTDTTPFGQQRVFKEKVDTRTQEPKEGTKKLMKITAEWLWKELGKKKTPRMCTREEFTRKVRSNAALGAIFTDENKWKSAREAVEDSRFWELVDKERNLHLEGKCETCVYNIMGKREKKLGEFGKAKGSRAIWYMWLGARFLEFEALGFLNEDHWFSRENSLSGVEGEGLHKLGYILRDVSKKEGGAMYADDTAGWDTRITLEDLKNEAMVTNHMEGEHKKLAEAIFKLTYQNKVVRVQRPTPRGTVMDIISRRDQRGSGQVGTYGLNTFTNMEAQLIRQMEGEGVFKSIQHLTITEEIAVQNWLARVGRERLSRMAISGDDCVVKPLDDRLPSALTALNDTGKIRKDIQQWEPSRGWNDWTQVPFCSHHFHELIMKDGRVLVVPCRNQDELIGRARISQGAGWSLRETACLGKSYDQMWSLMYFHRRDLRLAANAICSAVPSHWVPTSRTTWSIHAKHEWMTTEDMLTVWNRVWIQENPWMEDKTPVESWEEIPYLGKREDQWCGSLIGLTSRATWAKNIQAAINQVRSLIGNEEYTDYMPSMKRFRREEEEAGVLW

[15] = Luminescence Cell-Based Dose Response to Identify Activators of 5'UTR Stem-Loop Driven Prion Protein mRNA Translation in H4-C Neuroglioblastoma Cells. [Related pubchem assays: 1829 (Project Summary), 1814 (Primary HTS)]; format: functional
[16] = Luminescence Cell-Based Dose Confirmation HTS to Identify Activators of 5'UTR Stem-Loop Driven Alpha-Synuclein mRNA Translation in H4 Neuroglioblastoma Cells. [Related pubchem assays: 1829 (Project Summary), 1814 (Primary HTS)]; format: functional
H4 = test: Luminescence Cell-Based Dose Response HTS to Identify Activators of 5'UTR Stem-Loop Driven Prion Protein mRNA Translation in H4 Neuroglioblastoma Cells. [Related pubchem assays: 1829 (Project Summary), 1814 (Primary HTS)]; format: functional; conditions: Homo sapiens
[17] = Luminescence Cell-Based Dose Response to Identify Activators of Luciferase Translation or Activity in H4-C Neuroglioblastoma Cells. [Related pubchem assays: 1829 (Project Summary), 1814 (Primary HTS)]; format: functional
[18] = Luminescence Cell-Based Dose Confirmation to Identify Activators of 5'UTR Stem-Loop Driven Alpha-Synuclein mRNA Translation in H4 Neuroglioblastoma Cells. [Related pubchem assays: 1829 (Project Summary), 1814 (Primary HTS)]; format: functional
[19] = molecular target: Potassium voltage-gated channel subfamily KQT member 2 (Rattus norvegicus, UniProt O88943, W236L); test: potentiation of rat KCNQ2 current – cell-based, automated electrophysiology, mechanism study for KCNQ2 potentiator project, dose response (AID 2603); format: functional
Sequence of Potassium voltage-gated channel subfamily KQT member 2 (O88943 whole entry W236L): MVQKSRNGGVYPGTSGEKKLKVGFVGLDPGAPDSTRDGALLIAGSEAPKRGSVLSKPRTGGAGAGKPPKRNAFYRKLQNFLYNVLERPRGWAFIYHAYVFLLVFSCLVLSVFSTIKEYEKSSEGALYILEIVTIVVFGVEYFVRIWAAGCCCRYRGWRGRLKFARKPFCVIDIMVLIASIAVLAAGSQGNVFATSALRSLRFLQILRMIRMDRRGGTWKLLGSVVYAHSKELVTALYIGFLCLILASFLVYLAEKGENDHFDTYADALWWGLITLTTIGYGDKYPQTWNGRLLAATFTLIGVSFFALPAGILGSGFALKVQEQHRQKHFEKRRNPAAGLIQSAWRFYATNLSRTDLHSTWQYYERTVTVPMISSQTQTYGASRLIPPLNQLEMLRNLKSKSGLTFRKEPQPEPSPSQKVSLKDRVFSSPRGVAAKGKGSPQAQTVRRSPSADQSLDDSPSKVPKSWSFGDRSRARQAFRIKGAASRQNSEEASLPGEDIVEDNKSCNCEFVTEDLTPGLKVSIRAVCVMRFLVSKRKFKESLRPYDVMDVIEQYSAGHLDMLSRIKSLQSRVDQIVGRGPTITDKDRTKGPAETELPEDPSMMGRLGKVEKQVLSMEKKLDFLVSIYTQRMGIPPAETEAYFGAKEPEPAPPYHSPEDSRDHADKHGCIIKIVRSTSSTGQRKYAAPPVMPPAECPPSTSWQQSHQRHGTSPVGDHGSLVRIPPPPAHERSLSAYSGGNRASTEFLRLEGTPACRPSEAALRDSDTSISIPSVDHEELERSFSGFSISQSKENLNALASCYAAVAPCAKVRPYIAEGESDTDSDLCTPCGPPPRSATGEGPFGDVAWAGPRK

[20] = molecular target: Sphingosine 1-phosphate receptor 2 (Homo sapiens, UniProt O95136); test: Dose Response Cell Based Assay for Agonists of the S1P2 Receptor of Purchased Analogues. [Related pubchem assays: 729, 843, 854, 736 ]; format: functional
Sequence of Sphingosine 1-phosphate receptor 2 (O95136 whole entry): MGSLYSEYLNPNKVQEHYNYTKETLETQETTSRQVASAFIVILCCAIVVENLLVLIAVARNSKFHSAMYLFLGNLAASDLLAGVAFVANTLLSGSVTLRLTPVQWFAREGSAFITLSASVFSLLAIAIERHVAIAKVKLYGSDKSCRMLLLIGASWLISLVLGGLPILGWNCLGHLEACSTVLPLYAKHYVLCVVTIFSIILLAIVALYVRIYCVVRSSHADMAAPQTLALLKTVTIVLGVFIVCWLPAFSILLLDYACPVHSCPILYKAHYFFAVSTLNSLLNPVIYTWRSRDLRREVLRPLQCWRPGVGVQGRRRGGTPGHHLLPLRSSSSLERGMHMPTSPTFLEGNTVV

Bcl-2-like protein 10 = molecular target: T6, Bcl-2-like protein 10 (Homo sapiens, UniProt Q9HD36); test: Concentration-response of Bcl-B inhibitors by biochemical FP with TR3 (AID 1243); format: functional
T6 sequence (Q9HD36 whole entry): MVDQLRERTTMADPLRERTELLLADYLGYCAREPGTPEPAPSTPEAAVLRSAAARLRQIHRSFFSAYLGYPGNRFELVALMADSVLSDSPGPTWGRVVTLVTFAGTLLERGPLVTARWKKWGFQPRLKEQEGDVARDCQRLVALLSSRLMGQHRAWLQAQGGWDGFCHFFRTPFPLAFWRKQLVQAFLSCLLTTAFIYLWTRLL

[21] = mitochondrial function rescue without frataxin homolog – Friedreich's ataxia, plus single-dose screen, dose response (AID 1465); format: functional;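 note: yeast depleted of Yfh1p frataxin homolog grown on glycerol needing respiration; WST-1 tetrazolium dye reduction as measure of cellular dehydrogenase metabolic activity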
[22] = molecular target: DNA dC->dU-editing enzyme APOBEC-3A (Homo sapiens, UniProt P31941); test: Dose Response confirmation of small molecule APOBEC3A DNA Deaminase Inhibitors via a fluorescence-based single-stranded DNA deaminase assay. [Related pubchem assays (depositor defined):AID493011, AID493024]; format: functional
Sequence of DNA dC->dU-editing enzyme APOBEC-3A (P31941 whole entry): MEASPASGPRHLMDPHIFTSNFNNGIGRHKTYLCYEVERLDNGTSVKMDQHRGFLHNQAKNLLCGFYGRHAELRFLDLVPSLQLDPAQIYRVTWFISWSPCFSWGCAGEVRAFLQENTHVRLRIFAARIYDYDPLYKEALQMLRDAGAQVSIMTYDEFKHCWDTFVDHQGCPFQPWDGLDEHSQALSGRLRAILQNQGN

[23] = molecular target: DNA dC->dU-editing enzyme APOBEC-3G (Homo sapiens, UniProt Q9HC16); format: functional;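 note: Dose-response counterscreen measuring inhibition of APOBEC3G DNA deaminase activity, run while confirming APOBEC3A inhibitors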
Sequence of DNA dC->dU-editing enzyme APOBEC-3G (Q9HC16 whole entry): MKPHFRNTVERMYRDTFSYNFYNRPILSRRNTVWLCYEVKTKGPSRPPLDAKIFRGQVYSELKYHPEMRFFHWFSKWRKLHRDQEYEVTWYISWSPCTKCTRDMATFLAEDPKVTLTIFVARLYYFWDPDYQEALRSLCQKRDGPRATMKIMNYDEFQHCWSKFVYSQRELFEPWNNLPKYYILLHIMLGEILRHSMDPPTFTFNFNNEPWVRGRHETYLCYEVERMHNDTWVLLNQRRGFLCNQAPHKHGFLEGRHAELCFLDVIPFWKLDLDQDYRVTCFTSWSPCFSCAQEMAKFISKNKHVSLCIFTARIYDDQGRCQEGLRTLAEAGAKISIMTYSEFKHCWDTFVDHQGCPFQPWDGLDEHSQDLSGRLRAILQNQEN

[24] = Luminescence Cell-Based Dose Confirmation HTS to Identify Inhibitors of Polyadenylation.; format: functional

Structure (SMILES): Cc1ccc(N=C(S)N=C(N)Nc2nc(C)c3cc(C)ccc3n2)c(C)c1
- IC50 [1]: > 35 µM (not active)
- IC50 [2]: 22.9 µM (not active)

Structure (SMILES): COc1c(C)c2c(c(O)c1C/C=C(\C)CCC(=O)O)C(=O)OC2 [MYCOPHENOLIC ACID]
- EC50 [3]: 10.2 µM (active)
- EC50 [4]: 0.116 µM (active)
- CC50 (Vero [5]): 4.61 µM (active)
- EC50 [6]: 8.2 µM (active)
- EC50 [7]: 1.64 µM (active)
- EC50 [8]: 10.9 µM (active)
- IC50 (Vero [9]): < 0.05 µM (active)
- CC50 (Vero [10]): 9.68 µM (active)
- AC50 (Cytochrome P450 1A2): 15.8 µM (inconclusive)

Structure (SMILES): CC1(C)CC(=O)C2=C(C1)c1c(ccc3ccccc13)NC2c1cc([N+](=O)[O-])cc([N+](=O)[O-])c1O (centres undefined)
- EC50 [11]: 106 µM (active)
- IC50 (Aminopeptidase N): 29.4 µM (active)
- EC50 [12]: 4.43 µM (active)
- EC50 (Streptokinase A): > 150 µM (not active)
- EC50 [13]: 0.622 µM (active)
- IC50 [14]: 29.9 µM (active)
- EC50 (Streptococcus): > 150 µM (not active)
- IC50 (Genome polyprotein): 25.3 µM (active)

Structure (SMILES): Cc1ccc(Nc2nc3ccccc3[nH]2)nc1
- EC50 [15]: 0.279 µM (active)
- EC50 [16]: < 0.1 µM (active)
- EC50 [12]: 5.49 µM (active)
- EC50 (H4): 43.1 µM (active)
- EC50 (Streptokinase A): > 150 µM (not active)
- EC50 [17]: 0.368 µM (active)
- EC50 [18]: 0.601 µM (active)
- EC50 (Streptococcus): > 150 µM (not active)

Structure (SMILES): O=C(Nc1ccc(Oc2ccc3ccccc3c2)cc1)c1ccco1
- EC50 [19]: 12 µM (active)

Structure (SMILES): Cc1cc(C(=O)CN(C)CC(=O)N2CCOCC2)c(C)n1Cc1ccccc1
- EC50 [20]: > 30 µM (not active)

Structure (SMILES): CC(=O)c1cc(C#N)c(SCC(=O)c2ccc(O)c(O)c2)nc1C
- EC50 (Bcl-2-like protein 10): 11 µM (active)

Structure (SMILES): C[n+]1cc(C(=O)N2CCCCC2)ccc1/C=C/c1c[nH]c2ccccc12
- EC50 [21]: > 100 µM (active)
- IC50 [22]: 2.44 µM (active)
- IC50 [23]: 2.7 µM (active)

Structure (SMILES): CC(C)CC1Nc2ncnc(N3CCN(c4ccccc4)CC3)c2N(Cc2ccccc2)C1=O (centres undefined)
- EC50 [24]: > 120 µM (not active)
